Experimental data as given in patent publication US20170050957A1, “4-AMINO-6-(HETEROCYCLIC)PICOLINATES AND 6-AMINO-2-(HETEROCYCLIC)PYRIMIDINE-4-CARBOXYLATES AND THEIR USE AS HERBICIDES” (Dow AgroSciences LLC, priority 2013, published 2017).
Like-named read-outs stand apart in the source and are kept apart here.

What was measured:
[1] = system: Key Grass and Sedge Weeds as well as Grass Crops; assay: Post-emergent Test II herbicidal activity (Table 16); type: in vivo; details: post-emergence, 336 h, 14 d; for pest or weed control at 35 g/ha: 35 g ai/ha; for pest or weed control at 70 g/ha: 70 g ai/ha; for pest or weed control at 140 g/ha: 140 g ai/ha
How it was run: (§1)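 Visual injury rating (0 = none, 100 = complete kill) taken 14 d after treatment, relative to untreated plants. Compounds in acetone/DMSO with crop oil concentrate and Triton X-155 were track-sprayed at 187 L/ha onto seedlings at the first-second true leaf stage.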

[2] = system: Key Broadleaf Weed and Crop Species; assay: Post-emergent Test II herbicidal activity (Table 15); type: in vivo; details: post-emergence, 336 h, 14 d; for pest or weed control at 35 g/ha: 35 g ai/ha; for pest or weed control at 70 g/ha: 70 g ai/ha; for pest or weed control at 140 g/ha: 140 g ai/ha
How it was run: as §1

[3] = Cyperus esculentus, yellow nutsedge (Cyperus esculentus), read-out: Visual Growth Reduction (%) 14 Days After Application, CYPES
[4] = Echinochloa crus-galli, barnyardgrass (Echinochloa crus-galli), read-out: Visual Growth Reduction (%) 14 Days After Application, ECHCG
[5] = Oryza sativa, rice (Oryza sativa), read-out: Visual Growth Reduction (%) 14 Days After Application, ORYSA
[6] = Setaria faberi, giant foxtail (Setaria faberi), read-out: Visual Growth Reduction (%) 14 Days After Application, SETFA
[7] = Triticum aestivum, wheat, spring (Triticum aestivum), read-out: Visual Growth Reduction (%) 14 Days After Application, TRZAS
[8] = Zea mays, maize, corn (Zea mays), read-out: Visual Growth Reduction (%) 14 Days After Application, ZEAMX
[9] = Abutilon theophrasti, velvetleaf (Abutilon theophrasti), read-out: Visual Growth Reduction (%) 14 Days After Application, ABUTH
[10] = Amaranthus retroflexus, redroot pigweed (Amaranthus retroflexus), read-out: Visual Growth Reduction (%) 14 Days After Application, AMARE
[11] = Brassica napus, oilseed rape, canola (Brassica napus), read-out: Visual Growth Reduction (%) 14 Days After Application, BRSNN
[12] = Chenopodium album, lambsquarters (Chenopodium album), read-out: Visual Growth Reduction (%) 14 Days After Application, CHEAL
[13] = Euphorbia heterophylla, wild poinsettia (Euphorbia heterophylla), read-out: Visual Growth Reduction (%) 14 Days After Application, EPHHL
[14] = Helianthus annuus, sunflower (Helianthus annuus), read-out: Visual Growth Reduction (%) 14 Days After Application, HELAN

Structure (SMILES) | pest or weed control at 35 g/ha [1, 3] [%] | pest or weed control at 70 g/ha [1, 3] [%] | pest or weed control at 140 g/ha [1, 3] [%] | pest or weed control at 35 g/ha [1, 4] [%] | pest or weed control at 70 g/ha [1, 4] [%] | pest or weed control at 140 g/ha [1, 4] [%] | pest or weed control at 35 g/ha [1, 5] [%] | pest or weed control at 70 g/ha [1, 5] [%] | pest or weed control at 140 g/ha [1, 5] [%] | pest or weed control at 35 g/ha [1, 6] [%] | pest or weed control at 70 g/ha [1, 6] [%] | pest or weed control at 140 g/ha [1, 6] [%] | pest or weed control at 35 g/ha [1, 7] [%] | pest or weed control at 70 g/ha [1, 7] [%] | pest or weed control at 140 g/ha [1, 7] [%] | pest or weed control at 35 g/ha [1, 8] [%] | pest or weed control at 70 g/ha [1, 8] [%] | pest or weed control at 140 g/ha [1, 8] [%] | pest or weed control at 35 g/ha [2, 9] [%] | pest or weed control at 70 g/ha [2, 9] [%] | further results
Nc1c(F)c(-c2ccc(Cl)c3occc23)nc(C(=O)O)c1Cl [Compound 2.18] | 0 to 29 | 0 to 29 | 0 to 29 | 0 to 29 | 0 to 29 | 0 to 29 | 0 to 29 | 0 to 29 | 0 to 29 | 0 to 29 | 0 to 29 | 0 to 29 | 0 to 29 | 0 to 29 | 0 to 29 | 0 to 29 | 0 to 29 | 0 to 29 | 0 to 29 | 0 to 29 | pest or weed control at 140 g/ha [2, 9]: 0 to 29%; pest or weed control at 35 g/ha [2, 10]: 95 to 100%; pest or weed control at 70 g/ha [2, 10]: 95 to 100%; pest or weed control at 140 g/ha [2, 10]: 95 to 100%; pest or weed control at 35 g/ha [2, 11]: 45 to 59%; pest or weed control at 70 g/ha [2, 11]: 60 to 74%; pest or weed control at 140 g/ha [2, 11]: 60 to 74%; pest or weed control at 35 g/ha [2, 12]: 85 to 94%; pest or weed control at 70 g/ha [2, 12]: 85 to 94%; pest or weed control at 140 g/ha [2, 12]: 85 to 94%; pest or weed control at 35 g/ha [2, 13]: 0 to 29%; pest or weed control at 70 g/ha [2, 13]: 0 to 29%; pest or weed control at 140 g/ha [2, 13]: 0 to 29%; pest or weed control at 35 g/ha [2, 14]: 75 to 84%; pest or weed control at 70 g/ha [2, 14]: 75 to 84%; pest or weed control at 140 g/ha [2, 14]: 85 to 94%
COC(=O)c1nc(-c2cc3[nH]ccc3cc2F)c(F)c(N)c1Cl [Compound 1.13] | 0 to 29 | 0 to 29 | 0 to 29 | 0 to 29 | 0 to 29 | 0 to 29 | 0 to 29 | 0 to 29 | 0 to 29 | 0 to 29 | 0 to 29 | 0 to 29 | 0 to 29 | 0 to 29 | 0 to 29 | 0 to 29 | 0 to 29 | 0 to 29 | 0 to 29 | 0 to 29 | pest or weed control at 140 g/ha [2, 9]: 0 to 29%; pest or weed control at 35 g/ha [2, 10]: 0 to 29%; pest or weed control at 70 g/ha [2, 10]: 30 to 44%; pest or weed control at 140 g/ha [2, 10]: 30 to 44%; pest or weed control at 35 g/ha [2, 11]: 0 to 29%; pest or weed control at 70 g/ha [2, 11]: 0 to 29%; pest or weed control at 140 g/ha [2, 11]: 30 to 44%; pest or weed control at 35 g/ha [2, 12]: 60 to 74%; pest or weed control at 70 g/ha [2, 12]: 75 to 84%; pest or weed control at 140 g/ha [2, 12]: 85 to 94%; pest or weed control at 35 g/ha [2, 13]: 0 to 29%; pest or weed control at 70 g/ha [2, 13]: 0 to 29%; pest or weed control at 140 g/ha [2, 13]: 30 to 44%; pest or weed control at 35 g/ha [2, 14]: 45 to 59%; pest or weed control at 70 g/ha [2, 14]: 60 to 74%; pest or weed control at 140 g/ha [2, 14]: 60 to 74%
